# Laboratory results from patent US20050228016A1, “TETRAHYDROQUINOLINES FOR MODULATING THE EXPRESSION OF EXOGENOUS GENES VIA AN ECDYSONE RECEPTOR COMPLEX” (priority 2002, published 2005).
# What was measured:
# Gal4DBD/AaEcR (DEF) = biological target: T1, Gal4DBD/AaEcR (DEF) (Aedes aegypti, UniProt P49880); test: cell-based; assay type: cell-based; conditions: 33 μM; 3T3 cells; 48 h; average of two wells
# T1 construct: The wildtype D, E, and F domains from mosquito Aedes aegypti EcR; expressed in transfected cells; host or cells: 3T3 cells
# T1 sequence (P28704 286-520 A311G/G315S/G445S/I449V): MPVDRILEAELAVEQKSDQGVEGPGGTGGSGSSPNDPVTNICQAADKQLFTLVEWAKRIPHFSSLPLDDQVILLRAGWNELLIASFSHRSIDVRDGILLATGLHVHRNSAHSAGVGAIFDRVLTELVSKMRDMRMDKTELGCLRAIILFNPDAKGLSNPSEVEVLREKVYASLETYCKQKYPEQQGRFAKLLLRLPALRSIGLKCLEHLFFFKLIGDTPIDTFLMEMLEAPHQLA
# T1 sequence (P49880 405-776): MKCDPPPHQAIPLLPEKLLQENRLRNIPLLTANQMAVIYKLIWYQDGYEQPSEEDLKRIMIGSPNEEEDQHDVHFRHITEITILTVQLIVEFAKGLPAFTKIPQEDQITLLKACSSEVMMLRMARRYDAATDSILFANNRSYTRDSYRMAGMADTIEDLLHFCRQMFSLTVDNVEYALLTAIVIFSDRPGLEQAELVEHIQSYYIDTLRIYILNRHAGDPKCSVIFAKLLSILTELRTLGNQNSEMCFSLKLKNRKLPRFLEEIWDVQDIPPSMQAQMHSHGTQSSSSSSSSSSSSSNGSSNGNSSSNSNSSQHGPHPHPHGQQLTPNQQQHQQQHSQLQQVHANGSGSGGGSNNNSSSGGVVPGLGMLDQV
# In short: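 Mouse 3T3 cells transiently co-transfected with Gal4DBD/AaEcR (DEF) and pFRLuc (5× GAL4 response element, firefly luciferase reporter). Ligand added in serum medium 4 h after transfection; single-dose testing at 33 μM.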
# [1] = biological target: T2, Bombyx mori EcR (VP16-BmEcR, CVBE) (Bombyx mori, UniProt P49881); test: Z3 assay (HEK-293 clone Z3 with CVBE and 6x EcRE LacZ, β-galactosidase reporter); assay type: cell-based; conditions: 48 h, average of two wells
# T2 construct: expressed in transfected cells
# T2 sequence (P49881 86-606): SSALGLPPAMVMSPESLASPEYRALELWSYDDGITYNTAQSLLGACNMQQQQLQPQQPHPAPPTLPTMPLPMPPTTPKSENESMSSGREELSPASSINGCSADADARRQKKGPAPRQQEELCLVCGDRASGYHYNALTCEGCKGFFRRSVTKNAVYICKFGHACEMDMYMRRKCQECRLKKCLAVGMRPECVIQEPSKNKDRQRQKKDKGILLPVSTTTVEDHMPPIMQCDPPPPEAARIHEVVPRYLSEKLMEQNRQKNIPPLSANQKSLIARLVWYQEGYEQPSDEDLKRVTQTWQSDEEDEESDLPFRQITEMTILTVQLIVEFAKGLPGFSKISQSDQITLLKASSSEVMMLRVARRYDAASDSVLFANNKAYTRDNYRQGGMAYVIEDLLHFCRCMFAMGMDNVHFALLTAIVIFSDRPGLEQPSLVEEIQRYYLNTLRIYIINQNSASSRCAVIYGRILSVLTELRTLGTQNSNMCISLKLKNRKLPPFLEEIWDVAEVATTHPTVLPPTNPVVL
# Description: Dr. F. Gage provided a population of stably transformed cells containing CVBE and 6× EcRE as described in (Suhr et. al. 1998). Human 293 kidney cells, also referred to as HEK-293 cells, were sequentially infected with retroviral vectors encoding first the switch construct CVBE, and subsequently the reporter construct 6× EcRE Lac Z. The switch construct contained the coding sequence for amino acids 26-546 from Bombyx nori EcR (BE) (Iatrou) inserted in frame and downstream of the VP16 transactivation domain (VBE). A synthetic ATG start codon was placed under the control of cytomegalovirus (CVBE) immediate early promoter and flanked by long terminal repeats (LTR). The reporter-construct contained six copies of the ecdysone response element (EcRE) binding site placed upstream of LacZ and flanked on both sides with LTR sequences (6× EcRE).
# Dilution cloning was used to isolate individual clones. Clones were selected using 450 μg/ml G418 and 100 ng/ml puromycin. Individual clones were evaluated based on their response in the presence and absence of test ligands.
# Human 293 kidney cells stably transformed with CVBE and 6× EcRE lack were maintained in Minimum Essential Medium (Mediates, 10-010-CV) containing 10%.FBS (Life Technologies, 26140-087),[…] G418 (Mediates, 30-234-CR), and […] (Sigma, P-7255), at 37° C. in an atmosphere containing 5% CO2 and were subculture when they reached 75% confluence.
# Z3 cells were seeded into 96-well tissue culture plates at a concentration of 2.5×10^3 cells per well and incubated at 37° C. in 5% CO2 for twenty-four hours. Stock solutions of ligands were prepared in DMSO. Ligand stock solutions were diluted 100.fold in media and 50 μL of this diluted ligand solution (33 μM) was added to cells.
# Reporter gene expression was evaluated 48 hours after treatment of cells, β-galactosidase activity was measured using Gal Screen™ bioluminescent reporter gene assay system from Tropix (GSY1000).
# Flanking both constructs are long terminal repeats, G418 and puromycin are selectable markers, CMV is the cytomegalovirus promoter, VBE is coding sequence for amino acids 26-546 from Bombyx mori EcR inserted downstream of the VP16 transactivation domain, 6× EcRE is six copies of the ecdysone response element, lacZ encodes for the reporter enzyme β-galactosidase.
SMILES,"Fold Induction Average, AA_3T3V1 Assay 33 μM (Gal4DBD/AaEcR (DEF))","Fold Induction Average, Z3V1 Assay 33 μM [1]"
CC1CC(Nc2ccc(F)cc2)c2cc(F)ccc2N1C(=O)c1ccccc1F (centres unmarked) [Compound I-55],78 fold,10 fold
Cc1ccccc1C(=O)N1c2ccc(F)cc2C(Nc2ccc(F)cc2)CC1C (centres unmarked) [Compound I-56],158 fold,8 fold
COc1ccccc1C(=O)N1c2ccc(F)cc2C(Nc2ccc(F)cc2)CC1C (centres unmarked) [Compound I-57],4 fold,1 fold
CC1CC(Nc2ccccc2)c2ccccc2N1C(=O)c1ccc(Cl)cc1 (centres unmarked) [Compound I-61],216 fold,4 fold
CCc1ccc(C(=O)N2c3ccccc3C(Nc3ccccc3)CC2C)cc1 (centres unmarked) [Compound I-62],744 fold,43 fold
Cc1ccc(NC2CC(C)N(C(=O)c3ccc(Cl)cc3)c3ccc(C)cc32)cc1 (centres unmarked) [Compound I-63],812 fold,1 fold
COc1ccc(C(=O)N2c3ccccc3C(Nc3ccccc3)CC2C)cc1 (centres unmarked) [Compound I-95],11 fold,1 fold
Cc1ccc(C(=O)N2c3ccccc3C(Nc3ccccc3)CC2C)cc1 (centres unmarked) [Compound I-96],121 fold,1 fold
CC1CC(Nc2ccccc2)c2ccccc2N1C(=O)c1ccccc1 (centres unmarked) [Compound I-97],37 fold,1 fold
COc1ccc(C(=O)N2c3ccc(F)cc3C(Nc3ccc(F)cc3)CC2C)cc1 (centres unmarked) [Compound I-101],561 fold,2 fold
Cc1ccc(C(=O)N2c3ccc(F)cc3C(Nc3ccc(F)cc3)CC2C)cc1 (centres unmarked) [Compound I-102],601 fold,3 fold
CC1CC(Nc2ccccc2)c2ccccc2N1C(=O)c1ccc(Cl)nc1 (centres unmarked) [Compound I-103],341 fold,4 fold
CC1CC(Nc2ccccc2)c2ccccc2N1C(=O)c1ccc(Cl)c(F)c1 (centres unmarked) [Compound I-105],369 fold,30 fold
CC1CC(Nc2ccccc2)c2ccccc2N1C(=O)c1ccnc(Cl)c1 (centres unmarked) [Compound I-106],1053 fold,83 fold
CCc1c(OC)cccc1C(=O)N1c2ccccc2C(Nc2ccccc2)CC1C (centres unmarked) [Compound I-107],636 fold,6 fold
Cc1ccc(NC2CC(C)N(C(=O)c3ccno3)c3ccc(C)cc32)cc1 (centres unmarked) [Compound I-109],33 fold,1 fold

SMILES,"Fold Induction Average, AA_3T3V1 Assay 33 μM (Gal4DBD/AaEcR (DEF))","Fold Induction Average, Z3V1 Assay 33 μM [1]"
Cc1ccc(NC2CC(C)N(C(=O)c3ccc(Cl)c(F)c3)c3ccc(C)cc32)cc1 (centres unmarked) [Compound I-110],782 fold,2 fold
Cc1ccc(NC2CC(C)N(C(=O)c3ccnc(Cl)c3)c3ccc(C)cc32)cc1 (centres unmarked) [Compound I-111],527 fold,16 fold
CCCC(=O)N1c2ccccc2C(N(C(=O)c2ccccc2)c2ccc(F)cc2)CC1C (centres unmarked) [Compound I-126],1 fold,1 fold
COc1cccc(NC2CC(C)N(C(=O)c3ccccc3)c3ccccc32)c1 (centres unmarked) [Compound I-137],64 fold,1 fold
COc1cccc(C(=O)N(c2ccccc2)C2CC(C)N(C(C)=O)c3ccccc32)c1 (centres unmarked) [Compound I-142],1 fold,1 fold
Cc1ccc(C(=O)N2c3ccccc3C(N(C(=O)c3ccc(F)cc3)c3ccccc3)CC2C)cc1 (centres unmarked) [Compound I-143],27 fold,1 fold
CC1CC(Nc2ccccc2)c2ccccc2N1C(=O)COc1ccc(F)cc1 (centres unmarked) [Compound I-159],12 fold,1 fold
CC1CC(Nc2ccccc2)c2ccccc2N1C(=O)c1ccc(Cl)c(Cl)c1 (centres unmarked) [Compound I-165],1 fold,1 fold
CC1CC(Nc2ccccc2)c2ccccc2N1C(=O)c1ccc(I)cc1 (centres unmarked) [Compound I-168],401 fold,3 fold
CC1CC(Nc2ccccc2)c2ccccc2N1C(=O)CCC1CCCCC1 (centres unmarked) [Compound I-170],2 fold,1 fold
CCOC(=O)C(=O)N1c2ccccc2C(Nc2ccccc2)CC1C (centres unmarked) [Compound I-171],1 fold,1 fold
CC1CC(Nc2ccccc2)c2ccccc2N1C(=O)c1ccc(NS(C)(=O)=O)cc1 (centres unmarked) [Compound I-175],1 fold,5 fold
CC(C)C(=O)N1c2ccccc2C(N(C(=O)c2ccccc2)c2ccc([N+](=O)[O-])cc2)CC1C (centres unmarked) [Compound I-178],1 fold,1 fold
CCC(=O)N1c2ccccc2C(N(C(=O)c2ccc([N+](=O)[O-])cc2)c2ccccc2)CC1C (centres unmarked) [Compound I-183],1 fold,2 fold
Cc1ccc(C(=O)N2c3ccc(F)cc3C(N(C(=O)c3ccc(C)c(F)c3)c3ccc(F)cc3)CC2C)cc1F (centres unmarked) [Compound I-197],686 fold,1 fold
